Data taken from PMC4965013, “Open Source Drug Discovery with the Malaria Box Compound Collection for Neglected Diseases and Beyond” (PLoS Pathogens, 2016).
pEC50: −log10 of the molar value.

Experiments:
[1] = system: P. falciparum 3D7 trophozoites; test: Metabolomic fingerprint profiling LC-MS; assay type: cell-based, Plasmodium falciparum; set-up: UDP-D-glucose / ADP-D-glucose: unit not given here; details: for Acetyllysine / N-acetyl-L-ornithine / N-carbamoyl-L-aspartate / NADPH / dAMP / dCMP / dTDP / dTMP / dTTP / dihydroorotate / orotate / DLH / DLS/SDL/SID / PD / PEE / PVNF / 3-phosphoglycerate / ADP-D-glucose / ATP / CDP / D-sedoheptulose-1/7-phosphate / FAD / GMP / NAD+ / NADP+ / Octoluse Bisphosphate / Pyroglutamic acid / UDP-D-glucose / UDP-D-glucuronate / UDP-N-acetyl-glucosamine / UDP / UMP / UTP / a-ketoglutarate / citrate/isocitrate / cytidine / dATP / dGMP/AMP / fumarate / glucose-1/6-phosphate / glycerate / guanine / guanosine / hypoxanthine / indole / inosine / nicotinate / ornithine / phosphoenolpyruvate / pyruvate / ribose-phosphate / sarcosine/alanine / sn-glycerol-3-phosphate / succinate/methylmalonic acid / uridine / xanthosine: S2 Table Metabolomics; for Acetyllysine: metabolite Acetyllysine; for N-acetyl-L-ornithine: metabolite N-acetyl-L-ornithine; for N-carbamoyl-L-aspartate: metabolite N-carbamoyl-L-aspartate; for NADPH: metabolite NADPH; for dAMP: metabolite dAMP; for dCMP: metabolite dCMP; for dTDP: metabolite dTDP; for dTMP: metabolite dTMP; for dTTP: metabolite dTTP; for dihydroorotate: metabolite dihydroorotate; for orotate: metabolite orotate; for DLH: peptide DLH; for DLS/SDL/SID: peptide DLS/SDL/SID; for PD: peptide PD; for PEE: peptide PEE; for PVNF: peptide PVNF; for 3-phosphoglycerate: metabolite 3-phosphoglycerate; for ADP-D-glucose: metabolite ADP-D-glucose; for ATP: metabolite ATP; for CDP: metabolite CDP; for CDP / D-sedoheptulose-1/7-phosphate / GMP / Octoluse Bisphosphate / UDP / UMP / UTP / citrate/isocitrate / dGMP/AMP / fumarate / glucose-1/6-phosphate / glycerate / guanine / guanosine / inosine / pyruvate / sarcosine/alanine / succinate/methylmalonic acid / uridine / xanthosine: change in metabolite level after compound treatment; for D-sedoheptulose-1/7-phosphate: metabolite D-sedoheptulose-1/7-phosphate; for FAD: metabolite FAD; for GMP: metabolite GMP; for NAD+: metabolite NAD+; for NADP+: metabolite NADP+; for Octoluse Bisphosphate: metabolite Octoluse Bisphosphate; for Pyroglutamic acid: metabolite Pyroglutamic acid; for UDP-D-glucose: metabolite UDP-D-glucose; for UDP-D-glucuronate: metabolite UDP-D-glucuronate; for UDP-N-acetyl-glucosamine: metabolite UDP-N-acetyl-glucosamine; for UDP: metabolite UDP; for UMP: metabolite UMP; for UTP: metabolite UTP; for a-ketoglutarate: metabolite a-ketoglutarate; for citrate/isocitrate: metabolite citrate/isocitrate; for cytidine: metabolite cytidine; for dATP: metabolite dATP; for dGMP/AMP: metabolite dGMP/AMP; for fumarate: metabolite fumarate; for glucose-1/6-phosphate: metabolite glucose-1/6-phosphate; for glycerate: metabolite glycerate; for guanine: metabolite guanine; for guanosine: metabolite guanosine; for hypoxanthine: metabolite hypoxanthine; for indole: metabolite indole; for inosine: metabolite inosine; for 2_3-Diphosphoglyceric acid / 4-phosphopantothenate / 6-phospho-D-gluconate / FMN / IMP / Pyrophosphate / Sedoheptoluse bisphosphate / cyclic-AMP / glutathione disulfide / lactate / myo-inositol: metabolite level change after treatment; for nicotinate: metabolite nicotinate; for ornithine: metabolite ornithine; for phosphoenolpyruvate: metabolite phosphoenolpyruvate; for pyruvate: metabolite pyruvate; for ribose-phosphate: metabolite ribose-phosphate; for sarcosine/alanine: metabolite sarcosine/alanine; for sn-glycerol-3-phosphate: metabolite sn-glycerol-3-phosphate; for succinate/methylmalonic acid: metabolite succinate/methylmalonic acid; for uridine: metabolite uridine; for xanthosine: metabolite xanthosine
P. falciparum = test: EC50 listed in S2 Table Metabolomics (used to set the concentration tested); assay type: cell-based; details: Plasmodium falciparum; EC50 used for Factor_XEC50 in metabolomics; read-out: EC50_nM

## Cc1cc(Nc2ccc(C)c(Cl)c2)n2nc(C(F)(F)F)nc2n1 [MMV665874]
[1]
  Acetyllysine: -0.4022
  N-acetyl-L-ornithine: -0.2526
  N-carbamoyl-L-aspartate: 4.028
  NADPH: 0.1752
  dAMP: -0.05231
  dCMP: -0.05814
  dTDP: -1.343
  dTMP: -1.0853
  dTTP: -1.254
  dihydroorotate: 5.397
  orotate: 0.2167
  DLH: -0.1943
  DLS/SDL/SID: -0.1199
  PD: -0.005549
  PEE: -0.4065
  PVNF: -0.2835
  3-phosphoglycerate: 0.03547
  ADP-D-glucose: 0.02005
  ATP: 0.1462
  CDP: -0.8722
  D-sedoheptulose-1/7-phosphate: -0.2118
  FAD: -0.01762
  GMP: 0.4662
  NAD+: -0.1
  NADP+: -0.1197
  Octoluse Bisphosphate: 0.03302
  Pyroglutamic acid: 0.08116
  UDP-D-glucose: -0.2063
  UDP-D-glucuronate: -0.109
  UDP-N-acetyl-glucosamine: -0.4453
  UDP: -1.835
  UMP: -1.099
  UTP: -1.702
  a-ketoglutarate: -0.1317
  citrate/isocitrate: -0.1582
  cytidine: -0.03725
  dATP: 0.3143
  dGMP/AMP: 0.07446
  fumarate: -0.3892
  glucose-1/6-phosphate: 0.2173
  glycerate: 0.07615
  guanine: 0.251
  guanosine: 0.7775
  hypoxanthine: -0.1073
  indole: -0.01704
  inosine: -0.02522
  2_3-Diphosphoglyceric acid: 0.1914
  4-phosphopantothenate: -0.3242
  6-phospho-D-gluconate: 0.01162
  FMN: -0.4401
  IMP: -0.2175
  Pyrophosphate: 0.07871
  Sedoheptoluse bisphosphate: 0.06707
  cyclic-AMP: -0.1282
  glutathione disulfide: -0.03556
  lactate: -0.043
  myo-inositol: -0.09181
  nicotinate: -0.01808
  ornithine: 0.04606
  phosphoenolpyruvate: 0.07297
  pyruvate: 0.2233
  ribose-phosphate: 0.2644
  sarcosine/alanine: 0.1358
  sn-glycerol-3-phosphate: 0.2659
  succinate/methylmalonic acid: -1.091
  uridine: -0.8568
  xanthosine: -0.03941
P. falciparum
  pEC50: 8.17

## CC(C)(C)c1ccc(O)c(CNC2CCCCC2)c1 [MMV665785]
[1]
  Acetyllysine: -3.15
  N-acetyl-L-ornithine: -2.311
  N-carbamoyl-L-aspartate: -1.546
  NADPH: 0.984
  dAMP: -0.2403
  dCMP: -0.2349
  dTDP: -0.5512
  dTMP: -0.26
  dTTP: 0.1164
  dihydroorotate: -0.9762
  orotate: -1.456
  DLH: -3.579
  DLS/SDL/SID: -3.002
  PD: -3.491
  PEE: -3.582
  PVNF: -4.043
  3-phosphoglycerate: 0.5402
  ADP-D-glucose: -0.1351
  ATP: 0.1038
  CDP: 0.1776
  D-sedoheptulose-1/7-phosphate: 0.09578
  FAD: 0.3792
  GMP: -0.7077
  NAD+: 1.206
  NADP+: 0.3365
  Octoluse Bisphosphate: 0.02588
  Pyroglutamic acid: -0.2254
  UDP-D-glucose: 0.3073
  UDP-D-glucuronate: 0.153
  UDP-N-acetyl-glucosamine: 0.3019
  UDP: -0.1861
  UMP: -0.1897
  UTP: -0.0004267
  a-ketoglutarate: -1.327
  citrate/isocitrate: -0.9862
  cytidine: 0.6078
  dATP: 0.1738
  dGMP/AMP: -0.2591
  fumarate: -2.071
  glucose-1/6-phosphate: 0.2752
  glycerate: -0.524
  guanine: -0.6198
  guanosine: -0.8871
  hypoxanthine: -0.2777
  indole: -0.4001
  inosine: -0.2517
  2_3-Diphosphoglyceric acid: 0.5476
  4-phosphopantothenate: -0.1524
  6-phospho-D-gluconate: 0.3686
  FMN: 0.4685
  IMP: 0.07164
  Pyrophosphate: 0.2456
  Sedoheptoluse bisphosphate: 0.06348
  cyclic-AMP: -0.9854
  glutathione disulfide: -0.1571
  lactate: -0.3018
  myo-inositol: 0.3826
  nicotinate: -0.1953
  ornithine: -0.1957
  phosphoenolpyruvate: 0.4685
  pyruvate: -0.3246
  ribose-phosphate: -0.2844
  sarcosine/alanine: -1.431
  sn-glycerol-3-phosphate: -0.03786
  succinate/methylmalonic acid: -0.9733
  uridine: -0.6886
  xanthosine: -1.575
P. falciparum
  pEC50: 6.79

## Cc1ccc(-c2cc3c(SCC(=O)Nc4cc(C(F)(F)F)ccc4Cl)nccn3n2)cc1 [MMV396680]
[1]
  Acetyllysine: -0.4906
  N-acetyl-L-ornithine: -0.1465
  N-carbamoyl-L-aspartate: 2.456
  NADPH: 0.3651
  dAMP: -0.4552
  dCMP: -0.05341
  dTDP: -1.136
  dTMP: -1.083
  dTTP: -1.158
  dihydroorotate: 3.543
  orotate: -0.9159
  DLH: -0.3949
  DLS/SDL/SID: -0.337
  PD: -0.05706
  PEE: -0.2567
  PVNF: -0.5778
  3-phosphoglycerate: -0.2595
  ADP-D-glucose: -0.2217
  ATP: -0.3128
  CDP: -0.9741
  D-sedoheptulose-1/7-phosphate: -0.1867
  FAD: 0.01886
  GMP: 0.2283
  NAD+: 0.1566
  NADP+: -0.1345
  Octoluse Bisphosphate: -0.3002
  Pyroglutamic acid: -0.01833
  UDP-D-glucose: -0.08257
  UDP-D-glucuronate: -0.2581
  UDP-N-acetyl-glucosamine: -0.1134
  UDP: -1.014
  UMP: -0.7737
  UTP: -1.292
  a-ketoglutarate: -0.4564
  citrate/isocitrate: -0.8044
  cytidine: 0.4371
  dATP: 0.3628
  dGMP/AMP: -1.368
  fumarate: -0.8765
  glucose-1/6-phosphate: 0.09137
  glycerate: -0.2491
  guanine: 0.04089
  guanosine: -0.01605
  hypoxanthine: -0.1601
  indole: -0.003888
  inosine: -0.03937
  2_3-Diphosphoglyceric acid: -0.2285
  4-phosphopantothenate: -0.2363
  6-phospho-D-gluconate: 0
  FMN: -0.1967
  IMP: -0.1897
  Pyrophosphate: 0.5607
  Sedoheptoluse bisphosphate: -0.2656
  cyclic-AMP: -0.07723
  glutathione disulfide: -0.04075
  lactate: -0.4254
  myo-inositol: -0.7104
  nicotinate: -0.4764
  ornithine: -0.2162
  phosphoenolpyruvate: -0.2321
  pyruvate: -0.2774
  ribose-phosphate: -0.04672
  sarcosine/alanine: -0.2257
  sn-glycerol-3-phosphate: -0.3003
  succinate/methylmalonic acid: 0.02717
  uridine: -0.7719
  xanthosine: -0.1274
P. falciparum
  pEC50: 7.03
